PMC11624893 (Journal of the American Chemical Society, 2024)
Positions of bridges follow the written chain, without caps; N, C: chain ends. Non-standard residues stand in square brackets, D forms with d. Residues, ends and D or L forms follow the SMILES beside them. *: point of attachment. X1 = CC[C@H](C)CCCCC(=O)*; Dab = NCC[C@H](N)C(=O)O

Key:
[1] = system: biofilm-associated S. aureus 29213; assay: Minimum biofilm eradication concentration; assay type: cell-based
E. faecium 51559 [2] = conditions: E. faecium 51559, vanA-type resistance reference strain (VRE)
[3] = system: biofilm-associated M. smegmatis 700084; assay: Minimum biofilm eradication concentration; assay type: cell-based
M. abscessus 19977 = assay: Minimum inhibitory concentration; assay type: cell-based; conditions: M. abscessus 19977, mycobacteria
M. smegmatis 700084 [4] = assay: Ethidium bromide; assay type: cell-based; conditions: M. smegmatis 700084, 8 μM (1x MIC)
[5] = system: panel containing Gram-positive, Gram-negative, and mycobacterial microorganisms; assay: MIC assay, statements over the whole panel; assay type: cell-based; conditions: Gram-negative organisms (E. coli, A. baumannii, K. pneumoniae, P. aeruginosa)
S. aureus = assay: Peptidoglycan precursor accumulation, LC-MS; assay type: cell-based; conditions: treatment, cell lysis
S. aureus 29213 [6] = assay: Membrane permeability, propidium iodide; assay type: cell-based; conditions: S. aureus 29213, exponential-phase cells in HEPES-Glucose buffer
M. smegmatis = assay: Peptidoglycan precursor accumulation, LC-MS; assay type: cell-based; conditions: treatment, cell lysis
M. smegmatis 700084 [7] = assay: Minimum inhibitory concentration; assay type: cell-based; conditions: M. smegmatis 700084, mycobacteria
P. aeruginosa PA14 = assay: Minimum inhibitory concentration; assay type: cell-based; conditions: for Minimum Inhibitory Concentration (MIC): P. aeruginosa PA14, Gram-negative
E. coli 25922 [8] = assay: Minimum inhibitory concentration; assay type: cell-based; conditions: for Minimum Inhibitory Concentration (MIC): E. coli 25922, Gram-negative
M. avium 700898 [9] = conditions: M. avium 700898, mycobacteria
S. aureus 29213 [10] = assay: Minimum inhibitory concentration; assay type: cell-based; conditions: for Minimum Inhibitory Concentration (MIC): S. aureus 29213, Gram-positive, actively growing
[11] = system: biofilm-associated E. coli 25922; assay: Minimum biofilm eradication concentration; assay type: cell-based
K. pneumoniae 700603 [12] = conditions: K. pneumoniae 700603, Gram-negative
A. baumannii 19606 = assay: Minimum inhibitory concentration; assay type: cell-based; conditions: for Minimum Inhibitory Concentration (MIC): A. baumannii 19606, Gram-negative
E. coli 25922 [13] = assay: Outer membrane permeability, 1-N-phenylnapthylamine; assay type: cell-based; conditions: E. coli 25922, 5e at 80 μM (10x MIC)
M. avium 700898 [14] = assay: microbe, parasite or virus in culture; conditions: Mycobacterium avium, 700898, read-out: Minimum Inhibitory Concentration (MIC)
E. faecium 51559 [15] = assay: microbe, parasite or virus in culture; conditions: Enterococcus faecium, VRE, read-out: Minimum Inhibitory Concentration (MIC)
K. pneumoniae 700603 [16] = assay: microbe, parasite or virus in culture; conditions: Klebsiella pneumoniae, 700603, read-out: Minimum Inhibitory Concentration (MIC)
[17] = biofilm-associated S. aureus 29213, as given in the text
[18] = pre-formed biofilms of E. coli 25922, as given in the text
[19] = pre-formed biofilm of E. coli 25922, Table 2

Compound	minimum biofilm eradication concentration (MBEC) [1, 17] [µM]	Minimum Inhibitory Concentration (MIC) (E. faecium 51559 [2]) [µM]	Minimum Inhibitory Concentration (MIC) (M. abscessus 19977) [µM]	Minimum Inhibitory Concentration (MIC) (M. smegmatis 700084 [7]) [µM]	Minimum Inhibitory Concentration (MIC) (P. aeruginosa PA14) [µM]	Minimum Inhibitory Concentration (MIC) (E. coli 25922 [8]) [µM]	Minimum Inhibitory Concentration (MIC) (M. avium 700898 [9]) [µM]	Minimum Inhibitory Concentration (MIC) (S. aureus 29213 [10]) [µM]	minimum biofilm eradication concentration (MBEC) [11, 18]	Minimum Inhibitory Concentration (MIC) (K. pneumoniae 700603 [12]) [µM]	Minimum Inhibitory Concentration (MIC) (A. baumannii 19606) [µM]	minimum biofilm eradication concentration (MBEC) [11, 19] [µM]	also measured
CN[C@H](CC(C)C)C(=O)N[C@H]1C(=O)N[C@@H](CC(N)=O)C(=O)N[C@H]2C(=O)N[C@H]3C(=O)N[C@H](C(=O)N[C@H](C(=O)O)c4cc(O)cc(O)c4-c4cc3ccc4O)[C@H](O)c3ccc(c(Cl)c3)Oc3cc2cc(c3O[C@@H]2O[C@H](CO)[C@@H](O)[C@H](O)[C@H]2O[C@H]2C[C@](C)(N)[C@H](O)[C@H](C)O2)Oc2ccc(cc2Cl)[C@H]1O [Vancomycin, vancomycin]	> 512	512	32 to 64	8	256 to 512	128 to 256	16	1	256 µM	256 to 512	64 to 128	–	minimum biofilm eradication concentration (MBEC) ([3]; pre-formed biofilm of M. smegmatis 700084, Table 2): 64 µM; EtBr fluorescence (M. smegmatis 700084 [4]): did not influence EtBr fluorescence; typical MIC against Gram-negative organisms [5]: ≥ 128 µM; accumulation of peptidoglycan precursor (UDP-MurNAc pentapeptide) (S. aureus): accumulation of the UDP-MurNAc pentapeptide; PI fluorescence (membrane permeabilization) (S. aureus 29213 [6]): no increase in fluorescence; accumulation of peptidoglycan precursor (UDP-MurNGlyc pentapeptide) (M. smegmatis): related UDP-MurNGlyc pentapeptide in M. smegmatis; NPN fluorescence (outer membrane destabilization) (E. coli 25922 [13]): no increase in fluorescence
CN[C@H](CC(C)C)C(=O)N[C@H]1C(=O)N[C@@H](CC(N)=O)C(=O)N[C@H]2C(=O)N[C@H]3C(=O)N[C@H](C(=O)N[C@H](C(=O)O)c4cc(O)cc(O)c4-c4cc3ccc4O)[C@H](O[C@H]3C[C@](C)(N)[C@@H](O)[C@H](C)O3)c3ccc(c(Cl)c3)Oc3cc2cc(c3O[C@@H]2O[C@H](CO)[C@@H](O)[C@H](O)[C@H]2O[C@H]2C[C@](C)(NCc3ccc(-c4ccc(Cl)cc4)cc3)[C@@H](O)[C@H](C)O2)Oc2ccc(cc2Cl)[C@H]1O [Oritavancin, oritavancin]	2 to 4	2	128	32	>512	>512	128	1	no activity	>512	512	>128	minimum biofilm eradication concentration (MBEC) ([1]; pre-formed biofilm of S. aureus 29213, Table 2): 2 to 4 µM; minimum biofilm eradication concentration (MBEC) ([3]; pre-formed biofilms of M. smegmatis 700084, as given in the text): > 256 µM
Gentamycin	–	–	–	–	–	–	–	–	–	–	–	8	–
CC[C@H](C)CCCCC(=O)N[C@@H](CCN)C(=O)N[C@H](C(=O)N[C@@H](CCN)C(=O)N[C@H]1CCNC(=O)[C@H]([C@@H](C)O)NC(=O)[C@H](CCN)NC(=O)[C@H](CCN)NC(=O)[C@H](CC(C)C)NC(=O)[C@@H](Cc2ccccc2)NC(=O)[C@H](CCN)NC1=O)[C@@H](C)O [Polymyxin B, polymyxin B] (X1-[Dab]T[Dab][Dab][Dab][dF]L[Dab][Dab]T; lactam 4-C (inferred); N-terminus assumed)	–	–	–	–	–	–	–	–	16 to 32 µM	–	–	16 to 32	–
CO[C@H]1/C=C/O[C@@]2(C)Oc3c(C)c(O)c4c(O)c(c(/C=N/N5CCN(C)CC5)c(O)c4c3C2=O)NC(=O)/C(C)=C\C=C\[C@H](C)[C@H](O)[C@@H](C)[C@@H](O)[C@@H](C)[C@H](OC(C)=O)[C@@H]1C [Rifampicin, rifampicin]	16 to 32	–	–	–	–	–	–	–	–	–	–	–	–
CN(C)C(=N)N=C(N)N [Metformin, metformin]	–	–	–	–	–	–	–	–	–	–	–	–	MIC (M. avium 700898 [14]): > 512 µM; MIC (E. faecium 51559 [15]): > 512 µM; MIC (P. aeruginosa PA14; Pseudomonas aeruginosa, PA14, read-out: Minimum Inhibitory Concentration (MIC)): > 512 µM; MIC (E. coli 25922 [8]; Escherichia coli, 25922, read-out: Minimum Inhibitory Concentration (MIC)): > 512 µM; MIC (K. pneumoniae 700603 [16]): > 512 µM; MIC (S. aureus 29213 [10]; Staphylococcus aureus, 29213, read-out: Minimum Inhibitory Concentration (MIC)): > 512 µM; MIC (A. baumannii 19606; Acinetobacter baumannii, 19606, read-out: Minimum Inhibitory Concentration (MIC)): > 512 µM
